In patent publication US20200157092A1, “[1,2,4]-TRIAZOLO [1,5-A]-PYRIMIDINYL DERIVATIVES SUBSTITUTED WITH PIPERIDINE, […] […] OGA INHIBITORS” (priority 2017, published 2020):
Read-outs that look alike come from different tables or passages of the source.

Key:
[1] = target: T1, recombinant human Meningioma Expressed Antigen 5 (MGEA5), also referred to as O-GlcNAcase (OGA) (Homo sapiens, UniProt O60502); experiment: OGA biochemical assay: inhibition of FM-GlcNAc hydrolysis, fluorescence; protocol A (10 nM OGA, 1 h) or protocol B (2 nM OGA, 6 h); details: for IC50: read-out: Enzymatic hOGA, pIC50 (converted)
T1 construct: Full length OGA enzyme was purchased at OriGene (cat # TP322411); purchased OriGene TP322411
T1 sequence (O60502 1-916): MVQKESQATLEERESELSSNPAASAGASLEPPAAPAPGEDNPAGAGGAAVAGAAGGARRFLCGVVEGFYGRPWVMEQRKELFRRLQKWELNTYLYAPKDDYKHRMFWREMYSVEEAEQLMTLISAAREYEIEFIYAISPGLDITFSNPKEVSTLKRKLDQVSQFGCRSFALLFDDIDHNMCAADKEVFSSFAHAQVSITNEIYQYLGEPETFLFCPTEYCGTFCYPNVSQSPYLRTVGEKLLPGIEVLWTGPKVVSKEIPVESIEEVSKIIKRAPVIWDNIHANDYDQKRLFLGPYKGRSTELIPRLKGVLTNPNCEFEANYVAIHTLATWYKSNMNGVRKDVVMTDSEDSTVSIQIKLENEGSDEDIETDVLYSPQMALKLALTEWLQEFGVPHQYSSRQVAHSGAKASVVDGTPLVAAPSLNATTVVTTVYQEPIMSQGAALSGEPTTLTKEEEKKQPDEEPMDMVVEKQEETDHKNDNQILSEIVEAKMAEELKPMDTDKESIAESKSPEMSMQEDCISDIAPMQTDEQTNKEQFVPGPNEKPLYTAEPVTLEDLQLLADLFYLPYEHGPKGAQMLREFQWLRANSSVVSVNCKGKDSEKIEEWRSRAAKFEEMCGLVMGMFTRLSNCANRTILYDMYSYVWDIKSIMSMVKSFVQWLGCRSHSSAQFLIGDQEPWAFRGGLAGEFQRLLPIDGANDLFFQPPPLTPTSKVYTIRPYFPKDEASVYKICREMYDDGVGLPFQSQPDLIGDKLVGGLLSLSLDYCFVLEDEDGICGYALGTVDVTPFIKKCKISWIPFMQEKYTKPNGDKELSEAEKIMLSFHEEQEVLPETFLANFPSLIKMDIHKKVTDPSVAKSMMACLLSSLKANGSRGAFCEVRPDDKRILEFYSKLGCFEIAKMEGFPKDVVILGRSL

OGA = target: T2, OGA (Homo sapiens, UniProt O60502); experiment: OGA cellular assay: immunocytochemical detection of O-GlcNAcylated proteins in HEK293 cells inducible for P301L mutant human Tau; assay type: cell-based; details: for Emax: HEK293, read-out: Cellular Emax (%)
T2 construct: HEK293 cells inducible for P301L mutant human Tau (isoform 2N4R) were established at Janssen; endogenous in cells; host or cells: HEK293 cells inducible for P301L mutant human Tau (2N4R)
T2 sequence (O60502 1-916): T1 sequence (O60502 1-916)
Source text: HEK293 cells inducible for P301L mutant human Tau (isoform 2N4R) were established at Janssen. Thiamet-G was used for both plate validation (high control) and as reference compound (reference EC50 assay validation). […] Inhibition of OGA will result in an increase of O-GlcNAcylated protein levels resulting in an increased signal in the experiment. […] ICC pictures are imaged with a Perkin Elmer Opera Phenix plate microscope and quantified with the provided software Perkin Elmer Harmony 4.1.
Cells were propagated in DMEM high Glucose (Sigma, # D5796) following standard procedures. […] At the day of compound test medium from assay plates was removed and replenished with 90 μl of fresh Assay Medium. 10 μl of compounds at a 10 fold final concentration were added to the wells. Plates were centrifuged shortly before incubation in the cell incubator for 6 hours. DMSO concentration was set to 0.2%. Medium is discarded by applying vacuum. For staining of cells medium was removed and cells washed once with 100 μl D-PBS (Sigma, # D8537). From next step onwards unless other stated assay volume was always 50 μl and incubation was performed without agitation and at room temperature. […] Before analysis samples were washed 2 times manually for 5 minutes in ICC base buffer.
Imaging is performed using Perkin Elmer Phenix Opera using a water 20× objective and recording 9 fields per well. Intensity readout at 488 nm is used as a measure of O-GlcNAcylation level of total proteins in wells. To assess potential toxicity of compounds nuclei were counted using the Hoechst staining. IC50-values are calculated using parametric non-linear regression model fitting. As a maximum inhibition Thiamet G at a 200 uM concentration is present on each plate. In addition, a concentration response of Thiamet G is calculated on each plate.

[2] = Enzymatic protocol A (10 nM OGA, 1 h)
[3] = Enzymatic protocol B (2 nM OGA, 6 h)

Compound | melting point | Emax [1, 2] | IC50 [1, 2] | EC50 (OGA) | Emax (OGA) | Emax [1, 3] | IC50 [1, 3]
CC(=O)Nc1ncc(S(=O)(=O)N2CCO[C@@H](c3ccnc4ncnn34)C2)s1 [Product 31] | 263.16 °C | 103% | 15.8 nM | > 10000 nM | 11.1% |  | 
CC(=O)Nc1ncc(CN2CC[C@H](Cc3cncc4nccn34)C2)s1 [Product 108] | 202.48 °C |  |  | 97.7 nM | 92.7% | 101% | 4.9 nM
CC(=O)Nc1ncc(S(=O)(=O)N2CCOC(c3cc(C(F)(F)F)nc4ncnn34)C2)s1 (stereo not shown) [Product 27] | 255.12 °C | 100% | 17 nM | > 10000 nM | 19.5% |  | 
CC(=O)Nc1ncc(CN2CCCC(c3cc(C)nc4ncnn34)C2)s1 (racemic) [Product 11] | 246.95 °C |  |  | 27.5 nM | 113% | 100% | 6.17 nM
CC(=O)Nc1ncc(CN2CCCC(c3cc(C(F)F)nc4ncnn34)C2)s1 (racemic) [Product 13] | 186.01 °C | 101% | 8.51 nM | 35.5 nM | 130% |  | 
CC(=O)Nc1ncc(CN2CCC[C@H](c3ccnc4ncnn34)C2)s1 [Product 9] | 234.6 °C | 101% | 11.7 nM | 38.9 nM | 109% |  | 
CC(=O)Nc1ncc(CN2CCC[C@@H](c3cc(C(F)F)n4ncnc4n3)C2)s1 [Product 25] | 182.53 °C | 103% | 13.5 nM | 457 nM | 113% |  | 
CC(=O)Nc1ncc(S(=O)(=O)N2CCO[C@H](c3ccnc4ncnn34)C2)s1 [Product 32] | 260.51 °C | 102% | 14.5 nM | > 10000 nM | 21.8% |  | 
CC(=O)Nc1ncc(S(=O)(=O)N2CCOC(c3cc(C)nc4ncnn34)C2)s1 (racemic) [Product 28] | 290.78 °C | 103% | 9.12 nM | > 10000 nM | 22% | 101% | 8.51 nM
CC(=O)Nc1ncc(CN2CCCC(c3cc(C(F)F)nc4nccn34)C2)s1 (stereo not shown) [Product 14] | 226.06 °C | 102% | 8.71 nM | 70.8 nM | 108% |  | 
CC(=O)Nc1ncc(CN2CCC(Cc3cnc4cc[nH]c4c3)C2)s1 (stereo not shown) [Product 68] | 190.79 °C |  |  | 41.7 nM | 91.2% | 101% | 5.37 nM
CC(=O)Nc1ncc(S(=O)(=O)N2CCOC(c3cc(C(F)F)nc4ncnn34)C2)s1 (stereo not shown) [Product 33] | 264.85 °C | 101% | 6.46 nM | > 10000 nM | 15.7% |  | 
CC(=O)Nc1ncc(CN2CCCC(c3cc(C(F)F)n4ccnc4n3)C2)s1 (racemic) [Product 24] | 232.44 °C | 102% | 31.6 nM | 479 nM | 109% |  | 
